Assay results from patent EP4268800A1 (Prescience Biotechnology Inc., priority 2022, dated 2023).
Read-outs that look alike come from different tables or passages of the source.

Assays:
[1] = previous intravenous injection formulation, in rats; cited from earlier work
[2] = LD50 of previous intravenous injection formulation, converted to mice; conditions: mouse, in vivo, equivalent of the rat value in mice, read-out: lethal dosage 50% (LD50), equivalent in mice
SKOV3 xenograft = test: Xenograft ovarian tumor in mice; format: in vivo, NOD/SCID mice; conditions: docetaxel 4 mg/kg, RAP-E 50 mg/kg
Source text: Akt and mTOR phosphorylation are frequently detected in ovarian cancer, and SKOV3, an ovarian cancer cell line, is resistant to cis-platinum and doxorubicin.

CT26 model = test: Mouse colon cancer model; format: in vivo, Balb/c mice; conditions: 5-FU 25 mg/kg, RAP-E 25 mg/kg
Protocol: CT26 model on Balb/c mice was used as another animal model, classified as three groups: a control group (no drug), a comparative group (administration of 5-FU, dose: 25 mg/kg, Q3d^∗4) and the inventive group (administration of RAP-E formulation, dose: 25 mg/kg, Q3d^∗4). 6 week old Balb/c mice (BioLasco, Ilan, Taiwan) were inoculated subcutaneously with 1^∗10^5 CT26 cells (murine colorectal carcinoma cell). Following tumor inoculation, measuring the tumor size twice a week, and starting treatment when the tumor grows to 80-100 mm^3.

[3] = cited from earlier work

## CO[C@H]1C[C@@H]2CC[C@@H](C)[C@@](O)(O2)C(=O)C(=O)N2CCCC[C@H]2C(=O)O[C@H]([C@H](C)C[C@@H]2CC[C@@H](O)[C@H](OC)C2)CC(=O)[C@H](C)/C=C(\C)[C@@H](O)[C@@H](OC)C(=O)[C@H](C)C[C@H](C)/C=C/C=C/C=C/1C [Rapamycin]
[1]
  lethal dosage 50% (LD50): 40 mg/kg
[2]
  LD50: 80 mg/kg

## CC(=O)O[C@@]12CO[C@@H]1C[C@H](O)[C@@]1(C)C(=O)[C@H](O)C3=C(C)[C@@H](OC(=O)[C@H](O)[C@@H](NC(=O)OC(C)(C)C)c4ccccc4)C[C@@](O)([C@@H](OC(=O)c4ccccc4)[C@H]21)C3(C)C [docetaxel]
SKOV3 xenograft; Q3d*4
  Mean inhibition rate: 53%
SKOV3 xenograft; Q3d*4, day 39
  Day 39 tumor inhibition rate: 57%

## O=c1[nH]cc(F)c(=O)[nH]1 [5-FU]
CT26 model; Q3d*4
  Mean inhibition rate: 11%
  body weight change / toxicity: significant weight loss
CT26 model; Q3d*4, day 16
  Day 16 tumor inhibition rate: 26%

## CO[C@H]1C[C@@H]2CC[C@@H](C)[C@@](O)(O2)C(=O)C(=O)N2CCCC[C@H]2C(=O)O[C@H]([C@H](C)C[C@@H]2CC[C@@H](OCCO)[C@H](OC)C2)CC(=O)[C@H](C)/C=C(\C)[C@@H](O)[C@@H](OC)C(=O)[C@H](C)C[C@H](C)/C=C/C=C/C=C/1C [everolimus]
[3]; in a tablet form
  bioavailability: ~ 20%

## CO[C@H]1C[C@@H]2CC[C@@H](C)[C@@](O)(O2)C(=O)C(=O)N2CCCC[C@H]2C(=O)O[C@H]([C@H](C)C[C@@H]2CC[C@@H](OC(=O)C(C)(CO)CO)[C@H](OC)C2)CC(=O)[C@H](C)/C=C(\C)[C@@H](O)[C@@H](OC)C(=O)[C@H](C)C[C@H](C)/C=C/C=C/C=C/1C [temsirolimus]
[3]; via intravenous infusion
  bioavailability: up to 100%
